# According to EP0563062B1, “HEXAPEPTIDES DERIVING FROM AGLUCOTEICOPLANIN AND A PROCESS FOR PREPARING THEM” (GRUPPO LEPETIT S.p.A., priority 1990, dated 1992):
# Key:
# Test in all cases: MIC, microdilution method in broth, in comparison with teicoplanin
# Type in all cases: cell-based
# [1] = system: two strains of S. aureus and S. epidermidis showing low sensitivity to teicoplanin; settings: Iso-Sensitest broth, 18-24 hours at 37°C
# Description: (§1) The antimicrobial activity, expressed as minimal inhibitory concentration (MIC), of the hexapeptide of formula (I), R = hydrogen, against selected strains of Gram-positive bacteria was determined in comparison with teicoplanin. The microdilution method in Difco Todd-Hewitt broth (Streptococci) or Oxoid Iso-Sensitest broth (Staphylococci) was used.
# [2] = system: S. epidermidis and S. haemolyticus, two species of Coagulase-Negative Staphylococci (CNS); settings: relative to teicoplanin; Iso-Sensitest broth, inoculum about 10^5 cfu/ml, 18-24 hours at 37°C
# Description: as §1
# [3] = system: Staphylococci and Streptococci; settings: relative to teicoplanin; inoculum about 10^5 cfu/ml, 18-24 hours at 37°C
# Description: as §1
substance,measurement,setting,value
aglucoteicoplanin hexapeptide,"antimicrobial activity (MIC), fold relative to teicoplanin",[1],four to sixteen times more active
same,"antimicrobial activity, expressed as minimal inhibitory concentration (MIC)",[2],same degree of activity
same,"antimicrobial activity, expressed as minimal inhibitory concentration (MIC)",[3],generally less active than teicoplanin
